Measured values reported in patent US20180153990A1, “PCA1 PROTEIN AND METHODS OF TREATING PNEUMOCYSTIS PNEUMONIA INFECTION” (priority 2016, published 2018).

Key:
Pneumocystis = assay: Pcp-IRIS model: physiologic assessment (body weight, lung compliance, lung resistance); type: in vivo, SCID mice; details: treatment started when mice showed clinical signs of Pcp-IRIS
Excerpt: Severe combined immune deficient (SCID) mice on a C.B-17 background are maintained in a specific pathogen-free colony at University of Rochester Medical Center. For these studies, 6-8 week old female mice were infected with Pneumocystis by intratracheal inoculation with 1×10^5 Pneumocystis cysts and then also cohoused with other Pneumocystis-infected SCID mice to ensure infection. The mice were fed acidified water and sterile food. Immune reconstitution (IR) was initiated three weeks after infection by giving mice an intraperitoneal (i.p.) injection of 5×10^7 splenocytes from wild-type C.B-17 mice. All animals involved were treated ethically according to the guidelines from the Association for Assessment and Accreditation of Laboratory Care International (AAALAC International), and the protocols used were approved by the University Committee on Animal Resources.
Lung resistance and compliance were measured on living ventilated mice using a Harvard rodent ventilator (Harvard Apparatus, Southnatic, Mass.) and a whole body plethysmograph (BUXCO Electronics Inc., Wilmington, N.C.) as previously described (Wang et al., “Immune Modulation With Sulfasalazine Attenuates Immunopathogenesis but Enhances Macrophage-Mediated Fungal Clearance During Pneumocystis Pneumonia,” PLoS Pathog. 6:e1001058 (2010), which is hereby incorporated by reference in its entirety). […]

alveolar macrophages = assay: Effect of antibody administration during Pcp on alveolar macrophage phenotype (iNOS M1 / YM-1 M2 staining); type: in vivo, SCID mice
Method: For this experiment the Pneumocystis-infected mice were treated as above except that they received only 2 doses of specific antibody, nonspecific antibody or sulfasalazine on days 1 and 3 and then sacrificed later in the day on day 3. BALF aliquots containing 5×10^4 cells in HBSS were cytospun onto glass slides, fixed with 3% paraformaldehyde in PBS for 15 minutes at room temperature; rinsed 3× in PBS; and permeabilized with 0.02% Triton X-100 in PBS for 15 minutes at room temperature. The slides were then rinsed 3× in PBS, blocked with species specific 5% normal serum (normal goat serum, MP Biomedical; normal donkey serum, EMD Millipore) in 0.05% Tween-20 in PBS (PBS-T) for 1 hr at room temperature and rinsed 3× in PBS-T. Alveolar macrophages were identified by staining with fluorescein labeled primary antibody to CD11c. Staining with antibody to iNOS was used to identify M1 macrophages while staining with antibody to YM-1 was considered a marker for M2 macrophages (Abcam and Stemcell).
To test the effect of immune modulation, by administration of sulfasalazine or passive immunization, on macrophage phenotype during response to Pneumocystis, these agents or control nonspecific antibody were administered and alveolar macrophages were harvested after 3 days.

O=C(O)c1cc(/N=N/c2ccc(S(=O)(=O)Nc3ccccn3)cc2)ccc1O [SSZ, sulfasalazine]
severity of Pcp (recovery of body weight, pulmonary function) (Pneumocystis): reduced severity of Pcp
M1 phenotype alveolar macrophages (alveolar macrophages; Treatment Day 3): 200 per 300 macrophages counted
M2 phenotype alveolar macrophages (alveolar macrophages; Treatment Day 3): 100 per 300 macrophages counted
proportion of M2 type macrophages in the alveolar space (alveolar macrophages; after 3 days): increase
